Assay [1] has as its system Mycosphaerella arachidis Syn. Cercospora arachidicola. Briefly: Mycosphaerella arachidis liquid culture growth inhibition (microtiter plate, PDB, photometric). It counts as cell-based. The settings on record: read-out: Observed Activity (%); for inhibition at 0.625 ppm: single compound 0.625 ppm; for inhibition at 1.25 ppm: single compound 1.25 ppm; for inhibition at 2.5 ppm: single compound 2.5 ppm; for inhibition at 5 ppm: single compound 5 ppm; for inhibition at 10 ppm: single compound 10 ppm; for inhibition at 20 ppm: single compound 20 ppm. As to the method: Mycosphaerella arachidis Syn. Cercospora arachidicola (Brown Leaf Spot of Peanut): Conidia of the fungus from cryogenic storage were directly mixed into nutrient broth (PDB potato dextrose broth). A DMSO solution of the test compounds was placed into a microtiter plate (96-well format) and the nutrient broth containing the fungal spores was added to it. The test plates were incubated at 24° C. and the inhibition of growth was determined photometrically after 5-6 days at 620 nm.

Another assay has as its system Phakopsora pachyrhizi. Briefly: Phakopsora pachyrhizi soybean rust, treated plants / leaf disk test. It is filed as in vivo. The following applies: foliar, read-out: Observed Activity (%); for inhibition at 15 g/ha: single compound 15 g/ha. As for the experimental part:
Phakopsora pachyrhizi (Soybean Rust):
Whole soybean plants are treated with the recited active ingredients 4 weeks after planting. 1 day after spraying leaf disks are cut from the first trifoliate leaf. Five repetitions at each rate are conducted. The leaf disks are inoculated with Phakopsora pachyrhizi (Asian soybean rust) one day after treatment. Evaluation of the leaf disks is conducted 11 to 14 days after inoculation and the activity is derived from the relation of the treated vs untreated, infested check. The rates of the active ingredients used are given in Table as g active ingredient (a.i.)/ha.

In a further assay the test system is Septoria Glycines. The assay is described as follows: Septoria glycines liquid culture growth inhibition (microtiter plate, PDB, visual). The settings on record: read-out: Observed Activity (%). It is filed as cell-based. As to the method: Septoria Glycines (Brown Spot): Conidia of the fungus from cryogenic storage were directly mixed into nutrient broth (PDB potato dextrose broth). A DMSO solution of the test compounds was placed into a microtiter plate (96-well format) and the nutrient broth containing the fungal spores was added to it.

A further assay relates to Septoria tritici. Briefly: Septoria tritici liquid culture growth inhibition (microtiter plate, PDB, photometric). It is filed as cell-based. The settings on record: Zymoseptoria tritici, read-out: Observed Activity (%). As to the method:
Septoria tritici (Leaf Blotch): Conidia of the fungus from cryogenic storage were directly mixed into nutrient broth (PDB potato dextrose broth). A DMSO solution of the test compounds was placed into a microtiter plate (96-well format) and the nutrient broth containing the fungal spores was added to it.

Each structure is given as a SMILES string.

Take `CCN(C)C=Nc1cc(C)c(Oc2ccccc2F)cc1Cl` [N′-[2-chloro-4-(2-fluorophenoxy)-5-methyl-phenyl]-N-ethyl-N-methyl-formamidine]: the inhibition at 1 ppm in assay [1] (single compound 1 ppm) was 70%. Moreover, the inhibition at 2 ppm in assay [1] (single compound 2 ppm) came to 90%. Further, in the assay with Phakopsora pachyrhizi (single compound 1 g/ha), the inhibition at 1 g/ha stood at 4%. In the assay on Phakopsora pachyrhizi (single compound 2 g/ha), the inhibition at 2 g/ha worked out at 13%.

Turning to `Cc1cc(C2=NC(C)(C)C(F)(F)c3ccccc32)cnc1C` [Compound A-1.1, 1-(5,6-dimethyl-3-pyridyl)-4,4-difluoro-3,3-dimethyl-isoquinoline], in assay [1], the inhibition at 0.625 ppm is 0%. Moreover, the inhibition at 1.25 ppm (in assay [1]; in the assay with Septoria tritici (single compound 1.25 ppm)) was 0% each time. Moreover, the inhibition at 2.5 ppm (in assay [1]; in the assay on Septoria tritici (single compound 2.5 ppm)) was 0% each time. In addition, the values for the inhibition at 5 ppm (in assay [1]; with Septoria Glycines (single compound 5 ppm); in the assay with Septoria tritici (single compound 5 ppm)) were 0%, 0% and 20%, respectively. Besides, the inhibition at 10 ppm in assay [1] was 0%; in the assay with Septoria Glycines (single compound 10 ppm), 20%; with Septoria tritici (single compound 10 ppm), 50%. Further, the inhibition at 20 ppm in assay [1] was found to be 20%; with Septoria Glycines (single compound 20 ppm), 50%; in the assay on Septoria tritici (single compound 20 ppm), 70%. Also, the inhibition at 15 g/ha with Phakopsora pachyrhizi is 2%. In addition, in the assay on Phakopsora pachyrhizi (single compound 30 g/ha), the inhibition at 30 g/ha was 4%.

For `O=C(Nc1ccccc1F)c1ccc(-c2noc(C(F)(F)F)n2)cc1` [N-(2-fluorophenyl)-4-[5-(trifluoromethyl)-1,2,4-oxadiazol-3-yl]benzamide], the inhibition at 0.75 g/ha in the assay on Phakopsora pachyrhizi (single compound 0.75 g/ha) was found to be 27%. Besides, the inhibition at 1.5 g/ha with Phakopsora pachyrhizi (single compound 1.5 g/ha) came to 45%.

For `CNC(=S)c1ccc(-c2noc(C(F)(F)F)n2)cc1` [N-methyl-4-[5-(trifluoromethyl)-1,2,4-oxadiazol-3-yl]benzenecarbothioamide], the inhibition at 3 ppm in assay [1] (single compound 3 ppm) stood at 70%. Moreover, the inhibition at 6 ppm in assay [1] (single compound 6 ppm) stood at 90%; in the assay on Septoria tritici (single compound 6 ppm), 50%.

Take `N#Cc1ccc(Oc2ccc(C(F)(F)C(O)(Cn3nc[nH]c3=S)c3ccc(F)cc3F)nc2)cc1` (stereo not drawn) [4-[[6-[2-(2,4-Difluorophenyl)-1,1-difluoro-2-hydroxy-3-(5-thioxo-4H-1,2,4-triazol-1-yl)propyl]-3-pyridyl]oxy]benzonitrile]: the inhibition at 0.25 ppm with Septoria Glycines (single compound 0.25 ppm) worked out at 20%. Further, the inhibition at 0.5 ppm in the assay with Septoria Glycines (single compound 0.5 ppm) was 20%.

Regarding `CNC(=O)C(F)(F)c1ccc(-c2noc(C(F)(F)F)n2)cc1` [2,2-difluoro-N-methyl-2-[4-[5-(trifluoromethyl)-1,2,4-oxadiazol-3-yl]phenyl]acetamide], in assay [1], the inhibition at 10 ppm stood at 20% and the inhibition at 20 ppm was 50%.

For `Cc1cc(C2=NC(C)(C)C(F)(F)c3ccccc32)cnc1C(F)F` [Compound A-1.2, 1-[6-(difluoromethyl)-5-methyl-3-pyridyl]-4,4-difluoro-3,3-dimethyl-isoquinoline], in assay [1], the inhibition at 0.625 ppm was 0%, the inhibition at 1.25 ppm is 0%, the inhibition at 2.5 ppm came out at 0% and the inhibition at 5 ppm came to 0%. In addition, in assay [1], the inhibition at 10 ppm was 20% and the inhibition at 20 ppm stood at 50%. Also, the inhibition at 15 g/ha in the assay on Phakopsora pachyrhizi is 12%.

These data come from US20230371512A1, “FUNGICIDAL COMPOSITIONS” (SYNGENTA CROP PROTECTION AG, priority 2020, published 2023).
